According to patent US6610682B2, “Pharmaceutical compositions and methods for the treatment of arteriosclerosis” (Sankyo Company, Limited, priority 1996, dated 2003):

Key:
Type in all cases: in vivo, rabbit
WHHL rabbits [1] = assay: Arterial sclerosis progress inhibitory effect: surface area of aortic lesions (Example 2, 31 weeks); details: oral, CS-866 0.5 mg/kg, pioglitazone 20 mg/kg, BRL-49653 2.5 mg/kg, alone or combined, autopsy in 31st week
Experimental: A certain amount of an agent was administered orally for 31 weeks to 2-3 months old WHHL rabbits, Watanabe genetically hyperlipemic rabbits: described supra (Biochimica et Biophysica Acta), etc., in groups of 5 to 7 animals each. Incidentally, food consumption was restricted to 100 g/day per animal. Blood samples were collected immediately before administration of the agent and 8, 16, 24 and 31 weeks after the start of administration to measure total cholesterol levels (mg/dl). There were no changes observed in any of the dose groups as compared with the control group to which no agents were administered. In addition, the test animals were subjected to autopsy in the 31st week to investigate the surface area of aortic lesions (%) and the incidence of xanthochromia in finger joints.

WHHL rabbits [2] = assay: Arterial sclerosis progress inhibitory effect: surface area of aortic lesions (Example 1, 32 weeks); details: oral, CS-866 1 mg/kg, troglitazone 25 mg/kg, alone or combined, autopsy in 32nd week
Experimental: (§1) A certain amount of an agent was administered orally for 32 weeks to 2-3 months old WHHL rabbits, Watanabe genetically hyperlipemic rabbits: supra (Biochimica et Biophysica Acta), etc., in groups of 4 to 7 animals each. Incidentally, food consumption was restricted to 120 g/day per animal. Blood samples were collected immediately before administration of the agent and 4, 8, 12, 16, 20, 24, 28 and 32 weeks after the start of administration to measure total cholesterol levels (mg/dl). There were no changes observed in any of the dose groups as compared with the control group to which no agents were administered. The test animals were subjected to autopsy in the 32nd week to investigate the surface area of aortic lesions (%) and the incidence of xanthochromia in finger joints (%).

WHHL rabbits [3] = assay: Incidence of xanthochromia in finger joints (Example 1, 32 weeks); details: oral, CS-866 1 mg/kg, troglitazone 25 mg/kg, alone or combined
Experimental: as §1

Structure (SMILES)	Lesion surface area (%) Abdominal region (WHHL rabbits [1])	Lesion surface area (%) Arcuate region (WHHL rabbits [1])	Lesion surface area (%) Overall (WHHL rabbits [1])	Lesion surface area (%) Thoracic part (WHHL rabbits [1])	Lesion surface area (%) Abdominal region (WHHL rabbits [2])	Lesion surface area (%) Arcuate region (WHHL rabbits [2])	Lesion surface area (%) Overall (WHHL rabbits [2])	Lesion surface area (%) Thoracic part (WHHL rabbits [2])	Xanthochromia incidence (%) Forelimbs (WHHL rabbits [3])	Xanthochromia incidence (%) Hindlimbs (WHHL rabbits [3])	Xanthochromia incidence (%) Overall (WHHL rabbits [3])
CCCc1nc(C(C)(C)O)c(C(=O)OCc2oc(=O)oc2C)n1Cc1ccc(-c2ccccc2-c2nnn[nH]2)cc1 [CS-866, (5-methyl-2-oxo-1,3-dioxolen-4-yl)methyl 4-(1-hydroxy-1-methylethyl)-2-propyl-1-[2′-(1H-tetrazol-5-yl)biphenyl-4-ylmethyl]imidazole-5-carboxylate]	32 ± 8%	66 ± 5%	44 ± 7%	41 ± 10%	19%	68%	34%	26%	100%	100%	100%
Cc1c(C)c2c(c(C)c1O)CCC(C)(COc1ccc(CC3SC(=O)NC3=O)cc1)O2 (centres unmarked) [Troglitazone, 5-[4-(6-hydroxy-2,5,7,8-tetramethylchroman-2-ylmethoxy)benzyl]-2,4-thiazolidinedione]	–	–	–	–	32%	80%	54%	57%	93%	86%	89%
CCc1ccc(CCOc2ccc(CC3SC(=O)NC3=O)cc2)nc1 (centres unmarked) [Pioglitazone, 5-[4-[2-(5-ethyl-pyridin-2-yl)ethoxy]phenylmethyl]-2,4-thiazolidinedione]	32 ± 6%	65 ± 6%	52 ± 8%	62 ± 12%	–	–	–	–	–	–	–
CN(CCOc1ccc(CC2SC(=O)NC2=O)cc1)c1ccccn1 (centres unmarked) [BRL-49653, 5-[4-[2-[N-methyl-N-(pyridin-2-yl)amino]ethoxy]phenylmethyl]-2,4-thiazolidinedione]	29 ± 4%	83 ± 2%	52 ± 5%	54 ± 12%	–	–	–	–	–	–	–
